Several values for one entry are separate records, joined by “and”; a condition that tells them apart may be missing. Equal entries are not always repeated. Entries after “also recorded” stand apart in the source; their conditions may differ. Where two headings read alike, the source gives them in different places.
Legend:
[1] = test system: colonic epithelial NCM460 cells; conditions: read-out: Km of biotin transport; literature; cited from earlier work
Caco-2 cell monolayers = test: Absorptive (AP to BL) transport across Caco-2 cell monolayers; conditions: Caco-2 absorptive transport
Method: (§4) Caco-2 Cell Transport Studies An Ussing-type diffusion chamber system (Harvard Apparatus, Natick, Mass.) was used to perform transport studies. The apical solution was a MES Ringer's buffer (pH 6.5) consisting of 114.0 mM NaCl, 5.0 mM KCl, 1.1 mM MgSO4, 1.25 mM CaSO4, and 15 mM 2-(N-morpholino)ethanesulfonic acid (MES). The basolateral solution was a Ringer's buffer (pH 7.4) consisting of 114.0 mM NaCl, 5.0 mM KCl, 1.65 mM Na2HPO4, 0.3 mM NaH2PO4, 25 mM NaHCO3, 1.1 mM MgSO4, and 1.25 mM CaSO4. Both buffers contained 25 mM glucose and were adjusted to 290 mOsm/kg using a vapor pressure osmometer (Wescor Inc, Logan, Utah). For transport experiments using filters with cell monolayers, the inserts were rinsed with Ringer's buffet containing 25 mM glucose three times over a 20 min period at room temperature. The TEER was measured for each monolayer before it was mounted onto the diffusion chamber, which was pre-warmed to 37° C. by placement on the heating blocks. The volume of each half-chamber was 5 ml and the surface area of the Snapwell™ filters available for drug transport was 1 cm^2. […] The donor solution consisted of radiolabeled permeant in the apical buffer [apical (AP) to basolateral (BL) study]. Starting at 30 min, samples were taken from the receptor chamber every 15 min until the end of the experiment (105 min). A minimum of three monolayers was used to determine the permeability of test compound in each study and sample analysis was performed using scintillation counting (Perkin Elmer, Gaithersburg, Md.).
(§5) The Michaelis-Menten kinetic parameters of Caco-2 and CHO cell transport were then estimated using non-linear regression.
(§6) Prior to experimentation, diffusion chambers mounted with the Snapwells™ containing Caco-2 cells were equilibrated at 5° C., 10° C., 15° C., 25° C. and 37° C.
(§7) [formula] where Pe is the effective permeability of the substrate transported, Cs is the substrate concentration and Pm and Pc represent the passive and carrier-mediated component of the permeability. All data were initially fitted to a 3-parameter model (Pc, Pm, Km for Caco-2 studies, Jmax, Pm, Km for CHO studies).
(§8) Caco-2 Cell Transport Studies An Ussing-type diffusion chamber system (Harvard Apparatus, Natick, Mass.) was used to perform transport studies. The apical solution was a MES Ringer's buffer (pH 6.5) consisting of 114.0 mM NaCl, 5.0 mM KCl, 1.1 mM MgSO4, 1.25 mM CaSO4, and 15 mM 2-(N-morpholino)ethanesulfonic acid (MES). The basolateral solution was a Ringer's buffer (pH 7.4) consisting of 114.0 mM NaCl, 5.0 mM KCl, 1.65 mM Na2HPO4, 0.3 mM NaH2PO4, 25 mM NaHCO3, 1.1 mM MgSO4, and 1.25 mM CaSO4. Both buffers contained 25 mM glucose and were adjusted to 290 mOsm/kg using a vapor pressure osmometer (Wescor Inc, Logan, Utah). For transport experiments using filters with cell monolayers, the inserts were rinsed with Ringer's buffer containing 25 mM glucose three times over a 20 min period at room temperature. The TEER was measured for each monolayer before it was mounted onto the diffusion chamber, which was pre-warned to 37° C. by placement on the heating blocks.

[2] = molecular target: T1, human sodium dependent multivitamin transporter, hSMVT (Homo sapiens, UniProt Q9Y289); test: Uptake in CHO cells transiently transfected with hSMVT (CHO/hSMVT); conditions: for Pm, passive uptake component: CHO/hSMVT cellular uptake, (S.D), n = 3
T1 sequence (Q9Y289 1-635): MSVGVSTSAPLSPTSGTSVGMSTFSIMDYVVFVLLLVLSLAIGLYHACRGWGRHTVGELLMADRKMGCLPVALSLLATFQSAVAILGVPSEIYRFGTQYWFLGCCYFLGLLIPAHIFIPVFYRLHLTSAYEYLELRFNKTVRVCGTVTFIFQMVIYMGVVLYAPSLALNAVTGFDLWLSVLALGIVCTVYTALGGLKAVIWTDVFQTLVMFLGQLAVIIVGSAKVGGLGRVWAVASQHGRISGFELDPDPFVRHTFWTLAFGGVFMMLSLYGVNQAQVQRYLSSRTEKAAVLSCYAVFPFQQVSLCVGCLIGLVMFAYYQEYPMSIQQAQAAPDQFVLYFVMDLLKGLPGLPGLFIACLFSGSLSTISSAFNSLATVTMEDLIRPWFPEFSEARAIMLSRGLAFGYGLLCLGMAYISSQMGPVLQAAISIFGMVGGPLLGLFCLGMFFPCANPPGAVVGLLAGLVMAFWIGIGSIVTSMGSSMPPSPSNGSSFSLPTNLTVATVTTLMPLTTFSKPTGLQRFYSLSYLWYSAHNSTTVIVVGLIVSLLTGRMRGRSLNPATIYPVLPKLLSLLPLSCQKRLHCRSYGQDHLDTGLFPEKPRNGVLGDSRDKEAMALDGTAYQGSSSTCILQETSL
Method: (§1) CHO Cell Uptake Studies CHO cells transiently transfected with hSMVT (CHO/hSMVT) were washed twice with 25 mM uptake buffer, containing 25 mM Hepes/Tris pH 7.5, 140 mM NaCl, 5.4 mM KCl, 1.8 CaCl2, 0.8 mM MgSO4 and 5 mM glucose, approximately 48 hours post-transfection. Subsequently, the cells were incubated with the permeant at 37° C. for 10 minutes. Uptake was stopped by washing the cells thrice with ice-cold buffer. Non-specific uptake was measured in parallel experiments with the control pSPORT vector-transfected CHO cells. Finally, the cells were solubilized by 0.1% v/v Triton X-100, and 0.6 ml was used for scintillation counting. From the remaining volume, 10 μl of solution was taken from each well and protein concentration was determined using the Bio-Rad reagent according to the Bradford technique [M. Bradford, A rapid and sensitive method of quantitation of microgram quantities of protein utilizing the principle of protein-dye binding, Anal. Biochem. 72 (1976) 248]. Bovine serum albumin was used as the standard.
Parallel uptake experiments were performed using CHO/pSPORT control cells.
as §1, with “hSMVT” for “hSMVT (CHO/hSMVT)”, “glucose.” for “glucose, approximately 48 hours post-transfection.”, “Washing” for “Uptake was stopped by washing”, “three times” for “thrice”, “buffer stopped drug uptake.” for “buffer.”, “manufacturer's instructions.” for “Bradford technique [M. Bradford, A rapid and sensitive method of quantitation of microgram quantities of protein utilizing the principle of protein-dye binding, Anal. Biochem. 72 (1976) 248].”
as §1, with “Studies.” for “Studies”, “glucose.” for “glucose, approximately 48 hours post-transfection.”, “manufacturer's instructions.” for “Bradford technique [M. Bradford, A rapid and sensitive method of quantitation of microgram quantities of protein utilizing the principle of protein-dye binding, Anal. Biochem. 72 (1976) 248].”

rat small intestine = conditions: read-out: Km of biotin transport; literature; cited from earlier work
[3] = test system: human intestinal brush-border membrane vesicles; conditions: read-out: Km of biotin transport; literature; cited from earlier work
CHO/pSPORT cells = test: Non-specific uptake in vector-transfected control CHO/pSPORT cells
Method: as §1, with “From the remaining volume, 10 μl of solution was taken from each well and protein concentration was determined using the Bio-Rad reagent according to the Bradford technique [M. Bradford, A rapid and sensitive method of quantitation of microgram quantities of protein utilizing the principle of protein-dye binding, Anal. Biochem. 72 (1976) 248].” left out
CHO Cell Uptake Studies CHO cells transiently transfected with hSMVT were washed twice with 25 mM uptake buffer, containing 25 mM Hepes/Tris pH 7.5, 140 mM NaCl, 5.4 mM KCl, 1.8 CaCl2, 0.8 mM MgSO4 and 5 mM glucose. […] Non-specific uptake was measured in parallel experiments with the control pSPORT vector-transfected CHO cells. […] From the remaining volume, 10 μl of solution was taken from each well and protein concentration was determined using the Bio-Rad reagent according to the manufacturer's instructions. […]
CHO Cell Uptake Studies. […] Non-specific uptake was measured in parallel experiments with the control pSPORT vector-transfected CHO cells. […]

SMVT = molecular target: T2, SMVT (Homo sapiens, UniProt Q9Y289); test: Inhibition of substrate uptake in CHO/hSMVT cells by 50 μM SMVT substrates; type: in vitro ADME; design: expressed in transfected cells; host or cells: CHO cells (ATCC), transient Lipofectamine transfection; plasmid was a gift of Dr. Puttur D. Prasad
T2 sequence (Q9Y289 1-635): T1 sequence (Q9Y289 1-635)

in vitro = conditions: human, Caco-2
Method: as §4, §5, §6, §7, §8

superoxide production = conditions: literature value; read-out: EC50 for superoxide production (Klinker et al., 1996); cited from earlier work
[4] = test system: bovine brain microvessel endothelial cells (BBMECs); test: Transport (permeability) across BBMEC monolayers, in vitro BBB model; conditions: read-out: Km of transport and uptake; BBMECs
Method: Non-biotinylated PEGs were used in the control studies.
Isolation and culture of BBMECs. Bovine Brain Microvessel Endothelial Cells (BBMECs) were used as an in vitro model of BBB. BBMECs were isolated from bovine brain by a two-step enzymatic method and the cells were cultured on collagen coated Transwell™ plates or polystyrene plates in an atmosphere of 95% air and 5% CO2 at 37° C. Transendothelial electrical resistance (TEER) and several molecular markers were used to validate the integrity of the cell culture system.
The cells were cultured on 12-well Transwell™ filters for 7-8 days and transport was evaluated. […] All studies were performed at 37° C.

TAR RNA = conditions: unpublished results of the inventors
[5] = test system: differentiated HL-60 cells; test: Uptake of DIG conjugates by differentiated HL-60 cells (DIG ELISA); type: cell-based, human; conditions: 333 nM, 30 min, 37° C.
Method: (§2) Uptake by HL-60, Jurkat and Peritoneal Cells. Human Jurkat T-cell growth conditions were the same as for HL-60 cells, except that the subcultivation ratio was 1:3. Jurkat cells (2×10^5) or fully differentiated HL-60 cells were washed twice with PBS and incubated in binding buffer (see above) with conjugate for 30 min at 37° C. Each conjugate (1 μg, dissolved at a concentration of 333 nM) was used in these experiments. Cells were lysed, the membranes and cell debris were removed by centrifugation (5 min. at 14,000×g) and the enzyme-linked immunosorbent assay (ELISA) for DIG was performed on the supernatant as described below. In order to study primary peritoneal cells, BALB/c mice were injected in the peritoneal cavity with 5 μg of PEG/A-DIG4-fMLF4 (n=3 mice), or PEG/A-DIG4 (n=4 mice). After 1 h, the cavity was flushed with medium and cells were collected and washed twice with cold PBS, as described above.
(§3) Cells were resuspended in 100 μL of PBS, containing 0.6% Tween 20, vortexed briefly and kept on ice for 30 min. […] Uptake of DIG was determined by ELISA of the supernatant. […] DIG content was proportional to the difference in absorbance at 495 nm and 450 nm. […] In order to account for the potential different amounts of peritoneal cells from each mouse, the results were normalized to the amount of protein, as measured with the Bradford assay (BioRad, Hercules Calif.).

[6] = molecular target: T3, fMLF receptor on differentiated HL-60 cells (Homo sapiens, UniProt P21462); test: Competitive receptor binding assay with fML[3H]F
T3 construct: endogenous in cells; host or cells: HL-60 cells differentiated with 1.3% DMSO for 48 h; whole cells
T3 sequence (P21462 1-350): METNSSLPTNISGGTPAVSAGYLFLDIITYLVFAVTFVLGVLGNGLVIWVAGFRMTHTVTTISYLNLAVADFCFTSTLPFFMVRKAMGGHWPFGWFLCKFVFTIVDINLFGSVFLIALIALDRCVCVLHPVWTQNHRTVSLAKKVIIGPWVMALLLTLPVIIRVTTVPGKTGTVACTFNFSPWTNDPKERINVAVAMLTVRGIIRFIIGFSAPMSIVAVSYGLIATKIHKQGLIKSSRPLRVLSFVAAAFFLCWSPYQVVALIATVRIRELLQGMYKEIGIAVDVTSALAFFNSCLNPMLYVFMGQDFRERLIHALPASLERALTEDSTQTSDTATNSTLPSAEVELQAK

[7] = test system: differentiated HL-60 cells; test: Intracellular calcium assay (45Ca release from intracellular stores); type: cell-based, human; conditions: differentiated HL-60 cells, calcium release; read-out: Cell Activation EC50
Method: Intracellular Calcium Assay. HL-60 cells (2×10^5 cells/mL) were grown in the presence of 1.3% DMSO for 5 days. For each time course experiment, 2×10^6 cells were resuspended in 5 mL of HBSS containing 2 mCi/mL of ^45CaCl2 as the sole source of calcium. After 90 min incubation at 37° C., cells were washed twice as above with cold HBSS. […] Cell pellets were treated with 0.5% Triton X-100/0.1 M NaOH and centrifuged in tubes containing 0.3 mL of 10% sucrose and radioactivity associated with the pellets was measured; this represents vesicle-associated ^45Ca. The top portion of the tube, which contained the cytoplasmic ^45Ca was also measured.

Jurkat T-cells = test: Uptake of DIG conjugates by Jurkat cells (DIG ELISA); type: cell-based, human; conditions: 333 nM, 30 min
Method: as §2, §3

[8] = test system: peritoneal cells (macrophages); test: Uptake by peritoneal cells after intraperitoneal injection (DIG ELISA); type: in vivo, BALB/c mice
Method: as §2, §3

O=C(O)CCCC[C@@H]1SC[C@@H]2NC(=O)N[C@@H]21 [Biotin, biotin]
Km [1]: 19.7 µM | Km (Caco-2 cell monolayers): 11.3 µM | Pm, passive uptake component [2]: 3.50 (3.0) pmol/mg protein/10 min | Jmax ([2]; uptake in CHO/hSMVT cells): 174.61±47.53 pmol/mg protein/10 min and 174.61 (47.53) pmol/mg protein/10 min | Km (rat small intestine): 8.77 µM | Km [3]: 5.26 µM | uptake in CHO/pSPORT cells (CHO/pSPORT cells): 23.73 pmol/mg protein/10 min | inhibition of RI-K(biotin)-Tat9 uptake (SMVT; 0.1 μM RI-K(biotin)-Tat9, inhibitor 50 μM): significantly inhibited; also recorded: significantly lowered (p<0.001) | inhibition of biotin-PEG-3400 uptake (SMVT; 0.1 μM biotin-PEG-3400, inhibitor 50 μM): significantly (p<0.01) inhibited | inhibition of PEG:(RI-K(biotin)-Tat9)8 uptake (SMVT; 0.1 μM conjugate, inhibitor 50 μM): significantly lower (p<0.05) | Papp at 105 min (in vitro): 3.35 ×10⁻⁶ cm/s

CSCC[C@H](NC=O)C(=O)N[C@@H](CC(C)C)C(=O)N[C@@H](Cc1ccccc1)C(=O)O [fMLF, N-formyl-methionine-leucine-phenylalanine]
EC50 (superoxide production): 15 to 30 nM

N-acetyl-D-Lys:(ε-biotin)-D-Arg-D-Arg-D-Arg-D-Gln-D-Arg-D-Arg-D-Lys-D-Lys-D-Arg-NH2 [RI-K(biotin)-Tat9]
Km (Caco-2 cell monolayers): 3.27 µM | Jmax without Pm component in the regression model ([2]; CHO/hSMVT): 675.95 pmol/mg protein/10 min | Pm, passive uptake component [2]: 32.90 (4.48) pmol/mg protein/10 min | uptake of substrate alone (control of inhibition study) ([2]; CHO/hSMVT, 0.1 μM, 10 min): ~41.93 pmol/mg protein/10 min | uptake, fold greater than RI-K-Tat9 ([2]; CHO/hSMVT, at 10 μM): ~500 fold | Jmax ([2]; uptake in CHO/hSMVT cells): 227.26±29.33 pmol/mg protein/10 min and 227.26 pmol/mg protein/10 min and 227.26 (29.33) pmol/mg protein/10 min | Km ([2]; uptake in CHO/hSMVT cells, 10 min, 37° C.): 1 ± 0.13 µM | Km [4]: ~40 µM | TAR RNA binding activity (TAR RNA): comparable TAR RNA binding activity to Tat9-K(biotin)

PEG/A-fMLF4-DIG4: linear PEG-aspartate copolymer bearing four fMLF and four digoxigenin residues
conjugate bound and/or internalized [5]: 18% | Kd ([6]; Kd multiplied by average number of fMLF moieties, read-out: Relative Avidity Kd/fMLP): 4.8 nM | Kd ([6]; differentiated HL-60 cells, competition with fML[3H]F, read-out: Avidity Kd): 1.2 nM | Avidity Activation EC50/Kd ([6]; ratio of EC50 (calcium) to Kd): 4.92 | EC50 [7]: 5.9 nM | conjugate accumulated (Jurkat T-cells): 1.3% | administered conjugate taken up by peritoneal cells ([8]; BALB/c mice, 5 μg i.p., 1 h): 17% | DIG accumulation, fold over non-targeted conjugate PEG/A-DIG8 ([8]; non-activated peritoneal cells): ~5 fold

From US7740882B2, “Enhanced oral and transcompartmental delivery of therapeutic or diagnostic agents” (priority 2001, dated 2010)
